Consider six compounds from patent publication US20070196902A1, “Method of detecting AZT resistance in HIV” (University of Pittsburgh, priority 2006, published 2007).

Where two headings read alike, the source gives them in different places.

Assay [1] deals with HIV-1 RT mutants with A371V and/or Q509L, alone or in combination with TAMs. The assay is described as follows: Drug susceptibility of site-directed mutants, comparisons between mutants with and without A371V/Q509L. In kind it is cell-based. As to conditions: D67N/K70R/A371V/Q509L and D67N/K70R/T215F/A371V/Q509L.
The subject of assay [2] is Wild-type HIVLAI. The assay is described as follows: Drug susceptibility assay in P4/R5 cells, recombinant virus. In kind it is cell-based, HIV-1. How it is done: (§1) Drug susceptibility assays. NRTI susceptibility was determined in P4/R5 cells as described previously (Parikh, U. M., et al. 2005. Antimicrob. Agents Chemother. 49:1139-44). Briefly, threefold dilutions of inhibitor were added to P4/R5 cells in triplicate and cells were infected with an amount of virus that produced 100 relative units of light (RLU) in no drug, virus control wells. After 48 hours, the cells were lysed (Gal-Screen; Tropix/Applied Biosystems, Foster City, Calif.) and the RLU was measured using a ThermoLabSystems luminometer (Waltham, Mass.). The IC50 and fold-resistance were calculated as described above. IC50 values from at least three independent experiments were log10 transformed and compared for statistically significant differences using the two-sample Student's t test.
(§2) Construction of mutant recombinant HIV-1. Mutant recombinant plasmid clones of virus were generated by oligonucleotide site-directed mutagenesis as described previously (Shi, C., and J. W. Mellors. 1997. A recombinant retroviral system for rapid […] analysis of human immunodeficiency virus type 1 susceptibility to reverse transcriptase inhibitors. Antimicrob. Agents Chemother. 41:2781-5), using the p6HRT-MO plasmid. p6HRT-MO contains the entire RT and protease coding sequence as previously described (Le Grice, S. F., and F. Gruninger-Leitch. 1990. Rapid purification of homodimer and heterodimer HIV-1 reverse transcriptase by metal chelate affinity chromatography. Eur. J. Biochem. 187:307-14) and four silent restriction sites (Xma I, Mlu I, Xba I, and NgoM IV from the 5′ to 3′ end of RT at codons 14, 358, 490 and 554, respectively). After site-directed mutagenesis (QIAamp kit, QIAGEN, Valencia, Calif.), the mutated RT was ligated into pxxHIV-1LAI MO that contains the entire genome of HIV-1LAI and the same silent restriction sites as p6HRT-MO. Infectious virus was generated by electroporating the mutated xxHIV-1LAI MO plasmid into MT-2 cells as described above. All mutations in recombinant viruses were confirmed by full-length sequencing of the entire RT coding region.

For assay [3], the system named is HIVLAI RT D67N/K70R/T215F. Put plainly: Drug susceptibility assay in P4/R5 cells, site-directed mutant. As to conditions: for Fold-Resistance: D67N/K70R/T215F compared to wild-type; for IC50: D67N/K70R/T215F, mean ± SD. In kind it is cell-based, HIV-1. How it is done:
as §1, §2

For assay [4], the system named is HIVLAI RT D67N/K70R/T215F/A371V/Q509L. The assay is described as above. The settings on record: for Fold-Resistance: D67N/K70R/T215F/A371V/Q509L compared to wild-type; for cross-resistance compared with viruses without A371V/Q509L: HIV-1 containing D67N/K70R/T215F/A371V/Q509L; for IC50: D67N/K70R/T215F/A371V/Q509L, mean ± SD. It is filed as cell-based, HIV-1. The method, then: as §1, §2

For assay [5], the system named is HIVLAI RT D67N/K70R/A371V/Q509L. Described as above. It is filed as cell-based, HIV-1. As to conditions: for Fold-Resistance: D67N/K70R/A371V/Q509L compared to wild-type; for IC50: D67N/K70R/A371V/Q509L, mean ± SD. The method, then: as §1, §2
The test system of assay [6] is HIVLAI RT D67N/K70R. Described as above. In kind it is cell-based, HIV-1. The settings on record: for Fold-Resistance: D67N/K70R compared to wild-type; for IC50: D67N/K70R, mean ± SD. How it is done:
as §1, §2

For assay [7], the system named is HIV-1 RT mutations D549N and H539N. As to conditions: cited from earlier work.
In assay [8] the test system is HIV-1 RT H539N. As to conditions: H539N mutation; cited from earlier work.
The test system of assay [9] is HIV-1 RT D549N with TAMs D67N, K70R, T215Y and K219Q. The settings on record: D549N present with TAMs D67N; cited from earlier work.
Assay [10] concerns HIV-1 RT D549N. The settings on record: D549N mutation; cited from earlier work.
Setting [11] is: Human immunodeficiency virus 1, P4/R5.

For orientation: IC50 means the midpoint of a concentration-inhibition curve. For the compound `Nc1nc(NC2CC2)c2ncn([C@H]3C=C[C@@H](CO)C3)c2n1` [abacavir], the “cross-resistance of viruses with A371V and Q509L in combination with TAMs compared with those with only TAMs” value in assay [1] is recorded as “Statistically significant increases in cross-resistance”. The IC50 in assay [2] (setting [11]) was found to be 6.4 ± 0.5 µM; in assay [3] (setting [11]) it was 15 ± 1.5 µM; in assay [4] (setting [11]), 19 ± 4.5 µM; in assay [5] (setting [11]), 13 ± 2.5 µM; in assay [6] (setting [11]) it was 7.9 ± 0.4 µM. Besides, the Fold-Resistance is recorded as 2.4 fold in [3], 3.0 fold in assay [4], 2.0 fold in assay [5] and 1.2 fold in [6]. In addition, in assay [4], the “cross-resistance compared with viruses without A371V/Q509L” value is on record as “greater cross-resistance”.
As to `O=c1[nH]cnc2c1ncn2[C@H]1CC[C@@H](CO)O1` [didanosine], the IC50 in assay [2] (setting [11]) was 4.2 ± 0.9 µM; in assay [3] (setting [11]), 6.8 ± 0.3 µM; in assay [4] (setting [11]) it was 6.6 ± 0.4 µM; in assay [5] (setting [11]), 4.9 ± 0.9 µM; in assay [6] (setting [11]), 5 ± 0.9 µM. Further, the “effect of the mutations on susceptibility” value in assay [7] is “no effect”. The Fold-Resistance in [3] worked out at 1.6 fold; in assay [4], 1.6 fold; in [5], 1.2 fold; in assay [6] it was 1.2 fold.
As for `O=C1Nc2ccc(Cl)cc2[C@@](C#CC2CC2)(C(F)(F)F)O1` [efavirenz], the “effect of the mutations on susceptibility” value in assay [7] was “no effect”.
For the compound `Nc1ccn([C@@H]2CS[C@H](CO)O2)c(=O)n1` [lamivudine], the IC50 in assay [2] (setting [11]) is 0.5 ± 0.1 µM; in [3] (setting [11]) it was 3.8 ± 0.59 µM; in assay [4] (setting [11]), 7.5 ± 1.8 µM; in assay [5] (setting [11]), 2.7 ± 1.4 µM; in assay [6] (setting [11]) it was 1 ± 0.3 µM. Moreover, the Fold-Resistance was 7.0 fold in assay [3], 15 fold in [4], 5.2 fold in [5] and 1.9 fold in assay [6].
In the case of `Cc1cn([C@H]2C=C[C@@H](CO)O2)c(=O)[nH]c1=O` [stavudine], the “increase in resistance (reduced susceptibility)” value in [8] is 10 fold; in [10], 2,4 fold. Also, the IC50 came to 7.2 ± 0.6 µM in assay [2] (setting [11]); 17 ± 4.6 µM in assay [3] (setting [11]); 14 ± 4.4 µM in assay [4] (setting [11]); 9.6 ± 2.9 µM in assay [5] (setting [11]); 10 ± 3.1 µM in [6] (setting [11]). Moreover, the Fold-Resistance turned out to be 2.4 fold in assay [3], 2.0 fold in assay [4], 1.3 fold in [5] and 1.4 fold in [6]. For the same compound, the increase in resistance in assay [9] is recorded as 12.5 fold.
For `C[C@H](Cn1cnc2c(N)ncnc21)OCP(=O)(O)O` [tenofovir], the “cross-resistance of viruses with A371V and Q509L in combination with TAMs compared with those with only TAMs” value in assay [1] is listed as “trend toward decreased susceptibility”. The IC50 came out at 3.3 ± 0.9 µM in assay [2] (Wild-type HIVLAI RT, mean ± SD, at least 3 independent experiments, read-out: IC50); 4.9 ± 0.7 µM in [3]; 9 ± 3.5 µM in assay [4]; 7.3 ± 1.3 µM in [5]; 4.9 ± 1.5 µM in assay [6]. Further, the Fold-Resistance in [3] was 1.5 fold; in assay [4] it was 2.7 fold; in [5], 2.2 fold; in [6] it was 1.5 fold. Moreover, the “cross-resistance compared with viruses without A371V/Q509L” value in [4] is “greater cross-resistance”.
